Test results: ChEMBL document CHEMBL4033686, “Phenylbenzenesulfonates and -sulfonamides as 17β-hydroxysteroid dehydrogenase type 2 inhibitors: Synthesis and SAR-analysis” (Bioorg Med Chem Lett, 2017)

Legend:
Type in all cases: cell-based
[1] = biological target: T1, 17-beta-hydroxysteroid dehydrogenase type 1 (Homo sapiens) (UniProt P14061); assay: Inhibition of recombinant human 17beta-HSD1 expressed in HEK293 cells assessed as residual activity at 20 uM using estrone as substrate after 10 mins in presence of radiolabeled tracer substrate by scintillation counting method relative to control
T1 sequence (whole entry): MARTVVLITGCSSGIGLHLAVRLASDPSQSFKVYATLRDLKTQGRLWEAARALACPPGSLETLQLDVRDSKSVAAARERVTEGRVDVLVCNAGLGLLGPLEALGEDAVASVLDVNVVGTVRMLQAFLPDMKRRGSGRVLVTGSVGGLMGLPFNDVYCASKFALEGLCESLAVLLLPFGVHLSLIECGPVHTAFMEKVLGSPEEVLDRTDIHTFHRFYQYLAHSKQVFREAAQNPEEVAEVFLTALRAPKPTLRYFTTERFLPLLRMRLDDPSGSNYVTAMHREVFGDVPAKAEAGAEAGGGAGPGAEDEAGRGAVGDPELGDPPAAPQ

[2] = biological target: 11-beta-hydroxysteroid dehydrogenase 1 (Homo sapiens) (UniProt P28845); assay: Inhibition of recombinant human 11beta-HSD1 expressed in HEK293 cells assessed as residual activity at 20 uM using cortisone as substrate after 10 mins in presence of radiolabeled tracer substrate by scintillation counting method relative to control
Chain of 11-beta-hydroxysteroid dehydrogenase 1 (Homo sapiens) (P28845 whole entry, looked up): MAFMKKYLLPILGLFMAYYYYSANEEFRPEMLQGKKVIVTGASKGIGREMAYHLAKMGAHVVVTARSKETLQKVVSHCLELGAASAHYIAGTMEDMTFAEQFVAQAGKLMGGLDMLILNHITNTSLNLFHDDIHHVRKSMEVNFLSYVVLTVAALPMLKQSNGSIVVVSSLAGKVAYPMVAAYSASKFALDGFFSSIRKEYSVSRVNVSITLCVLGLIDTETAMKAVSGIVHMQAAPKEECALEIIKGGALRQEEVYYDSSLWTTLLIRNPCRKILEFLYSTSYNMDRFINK

[3] = biological target: T2, 11beta-HSD2 (11-beta-hydroxysteroid dehydrogenase type 2) (Homo sapiens, UniProt P80365); assay: Inhibition of recombinant human 11beta-HSD2 expressed in HEK293 cells assessed as residual activity at 20 uM using cortisol as substrate after 10 mins in presence of radiolabeled tracer substrate by scintillation counting method relative to control; details: HEK293 cells expressing recombinant human 11beta-HSD2, probe cortisol, read-out: Activity
T2 sequence (P80365 whole entry): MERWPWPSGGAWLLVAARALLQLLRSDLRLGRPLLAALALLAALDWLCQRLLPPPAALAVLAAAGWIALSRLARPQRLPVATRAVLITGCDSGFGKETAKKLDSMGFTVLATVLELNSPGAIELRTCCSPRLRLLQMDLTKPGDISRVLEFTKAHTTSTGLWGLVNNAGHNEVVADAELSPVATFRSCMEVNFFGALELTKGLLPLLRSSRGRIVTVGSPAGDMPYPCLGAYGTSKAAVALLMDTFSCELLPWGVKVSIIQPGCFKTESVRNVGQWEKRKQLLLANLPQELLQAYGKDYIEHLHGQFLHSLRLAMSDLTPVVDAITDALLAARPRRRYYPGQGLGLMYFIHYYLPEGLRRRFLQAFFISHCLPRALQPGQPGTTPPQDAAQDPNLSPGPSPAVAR

Homo sapiens [4] = organism: Homo sapiens; assay: Selectivity index, ratio of compound effect for inhibition of recombinant human 17beta-HSD1 expressed in HEK293 cells assessed as residual activity to compound effect for inhibition of 17beta-HSD2 expressed in HEK293 cells assessed as residual activity
[5] = biological target: T3, 17-beta-hydroxysteroid dehydrogenase type 2 (Homo sapiens) (UniProt P37059); assay: Inhibition of recombinant human 17beta-HSD2 expressed in HEK293 cells assessed as residual activity at 20 uM using estradiol as substrate after 10 mins in presence of radiolabeled tracer substrate by scintillation counting method relative to control
T3 sequence (whole entry): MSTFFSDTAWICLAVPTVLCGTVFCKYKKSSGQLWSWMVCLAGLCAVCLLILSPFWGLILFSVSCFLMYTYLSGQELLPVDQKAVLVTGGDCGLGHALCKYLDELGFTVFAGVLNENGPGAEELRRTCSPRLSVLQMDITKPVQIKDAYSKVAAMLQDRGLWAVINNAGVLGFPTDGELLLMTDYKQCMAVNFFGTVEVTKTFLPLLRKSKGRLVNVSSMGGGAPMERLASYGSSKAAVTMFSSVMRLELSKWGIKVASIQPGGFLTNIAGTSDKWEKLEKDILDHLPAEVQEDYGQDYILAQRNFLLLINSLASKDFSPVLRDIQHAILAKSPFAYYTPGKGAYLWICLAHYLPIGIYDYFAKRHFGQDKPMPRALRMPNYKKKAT

Homo sapiens [6] = organism: Homo sapiens; assay: Selectivity index, ratio of compound effect for inhibition of recombinant human 11beta-HSD1 expressed in HEK293 cells assessed as residual activity to compound effect for inhibition of 17beta-HSD2 expressed in HEK293 cells assessed as residual activity
Homo sapiens [7] = organism: Homo sapiens; assay: Selectivity index, ratio of compound effect for inhibition of recombinant human 11beta-HSD2 expressed in HEK293 cells assessed as residual activity to compound effect for inhibition of 17beta-HSD2 expressed in HEK293 cells assessed as residual activity
[8] = biological target: T4, 17-beta-hydroxysteroid dehydrogenase type 2 (Homo sapiens, UniProt P37059); assay: Inhibition of recombinant human 17beta-HSD2 expressed in HEK293 cells using estradiol as substrate after 10 mins in presence of radiolabeled tracer substrate by scintillation counting method
T4 sequence (P37059 whole entry): T3 sequence (whole entry)

Structure (SMILES)	Activity [1] [%]	Activity [2] [%]	activity at 10 min, 20 µM [3] [%]	Selectivity Index (Homo sapiens [4])	Activity [5] [%]	Selectivity Index (Homo sapiens [6])	Selectivity Index (Homo sapiens [7])	IC50 [8] [µM]
CC(C)(C)c1ccc(S(=O)(=O)Nc2ccc(F)cc2N)cc1	56	26	97	1.6	36	0.7	2.7	
CC(C)(C)c1ccc(S(=O)(=O)Nc2cc(-c3ccccc3)ccc2O)cc1	13	62	3	6.5	2	31	1.5	1.25
Cc1ccc(N)c(OS(=O)(=O)c2ccc(C(C)(C)C)cc2)c1					36			
Cc1cc(N)c(NS(=O)(=O)c2ccc(C(C)(C)C)cc2)cc1C					58			
CC(C)(C)c1ccc(S(=O)(=O)Nc2cc(Cl)ccc2O)cc1	15	35	7	2.5	6	5.8	1.2	0.8
Cc1ccc(O)c(NS(=O)(=O)c2ccc(C(C)(C)C)cc2)c1	38	46	63	2.9	13	3.5	4.8	4.09
Cc1cc(S(=O)(=O)Nc2cccc(O)c2)c(C)cc1Cl					10			
CC(C)(C)c1ccc(S(=O)(=O)Nc2cc(Cl)ccc2N)cc1	46	28	75	2.1	22 to 28	1.3	3.4	5.58
CC(C)(C)c1ccc(S(=O)(=O)Nc2c(O)ccc3ccccc23)cc1	46	21	21	8.6	7	3	3	2.9
CC(C)(C)c1ccc(S(=O)(=O)Oc2ccc(-c3ccccc3)cc2N)cc1					86			
CC(C)(C)c1ccc(S(=O)(=O)Nc2ccccc2N)cc1					46			
O=c1cc(-c2ccc(O)cc2)oc2cc(O)cc(O)c12	11							
Cc1cc(C)c(OS(=O)(=O)c2ccc(C(C)(C)C)cc2)c(N)c1					49			
CC(C)(C)c1ccc(S(=O)(=O)Oc2ccccc2N)cc1					33			
CC(C)(C)c1ccc(S(=O)(=O)Nc2ccc(Cl)cc2N)cc1					35			
CC(C)(C)c1ccc(S(=O)(=O)Nc2cc(Cl)c(Cl)cc2N)cc1	23	74	21	2.1	11	6.7	1.9	4.65
CC(C)(C)c1ccc(S(=O)(=O)Nc2ccccc2O)cc1	41	37	83	8.2	5	7.4	16.6	1.23
Cc1cc(C)c(O)c(NS(=O)(=O)c2ccc(C(C)(C)C)cc2)c1	19	43	37	1.1	18	2.4	2.1	5.19
CC(C)(C)c1ccc(S(=O)(=O)Oc2ccc3ccccc3c2N)cc1					43			
Cc1ccc(NS(=O)(=O)c2ccc(C(C)(C)C)cc2)c(O)c1	35	24	62	1.6	22	1.1	2.8	4.4
Cc1ccc(OS(=O)(=O)c2ccc(C(C)(C)C)cc2)c(N)c1					37			
CC(C)(C)c1ccc(S(=O)(=O)Oc2ccc(Cl)cc2N)cc1					44			
